The results in this text go back to patent publication US20110289042A1, “Integrative Framework for Three-Stage Integrative Pathway Search” (BOARD OF TRUSTEES OF MICHAGN STATE UNIVERSITY, priority 2005, published 2011).

Assay type in all cases: cell-based, human
One data set deals with phospho-P65 NF-κB. Kind of data set: phospho-P65 NF-κB by western blot in HepG2 cells. On the procedure: Therefore, we tested the possibility of this link in HepG2 cells by adding rottlerin, an inhibitor of PKC-δ, and measuring the protein expression and activity levels of NF-κB with western blots. […] This confirmed the connection between TNF-α and PKC-δ in the reconstructed network (model). To determine whether PKC-δ is involved in mediating the activation of NF-κB by TNF-α, PKC-δ was inhibited by a PKC-δ specific inhibitor rottlerin. The activity of NF-κB was measured with western blots by detecting the levels of phosphorylated NF-κB p65 at serine 536 [Sakurai et al. 2003]. As shown in FIG. 6(A), the activation of NF-κB p65 was attenuated by rottlerin. […] Therefore, PKC-δ was appropriately identified by the model to be an important factor in mediating the TNF-α signaling pathway.
PKC-δ was inhibited with rottlerin (BIOMOL Research Laboratories, Plymouth Meeting, Pa.). […] After 48 hours of exposure, cells were lysated with 1× SDS sample buffer. After ultrasonication for 11-15 seconds, the suspension was centrifuged (10,000 relative centrifugal force (rcf), 5 minutes). The supernatant was run on 7.5% gradient SDS-PAGE, transferred to a nitrocellulose membrane, blocked for 1 hour at room temperature with 5% milk protein solution in Tris buffered saline with Tween 20, and exposed to monoclonal anti-phospho NF-κB (65 kDa subunit) (Cell Signaling Technology Inc., MA) at 1:2000 dilution overnight at 4° C. The blot was washed and put in rabbit anti-mouse IgG secondary antibody (1:2000 dilution in TBS-Tween) for 1 hour. The blot was washed thrice each in TBS-Tween and TBS and developed using Supersignal West Femto Substrate (Pierce Chemicals), and imaged with Bio-Rad imager.
Bcl-2 was inhibited with HA14-1 (BIOMOL Research Laboratories, Plymouth Meeting, Pa.) at 10 μM. The phospho-NF-κB p65 was detected with monoclonal anti-phospho NF-κB (65 kDa subunit) (Cell Signaling Technology Inc., Danvers, Mass., US) at 1:2000 dilution.
(In western blotting, separated proteins are transferred to a membrane and probed.)

The next data set relates to Hep G2/C3A cells. On the procedure:
Cell Culture. 1 million Hep G2/C3A cells (ATCC, Manassas, Va.) were seeded into each well of 6-well culture plate. The cells were kept in 2 mL of medium containing Dulbecco's modified Eagles medium (Invitrogen, Carlsbad, Calif.) supplemented with 10% fetal bovine serum (ATCC) and 2% Penicillin-streptomycin (Invitrogen). Cells were incubated at 37° C. and in 10% CO2 atmosphere. After cells reached confluence, the medium was replaced with 2 mL of treatment of FFA including palmitate (700 μM), oleate (700 μM), linoleate (700 μM) and TNF-α (0, 20, 100 ng/mL′)
Cytotoxicity measurement. […] Cells were washed with phosphate buffered saline (PBS) and kept in 1% Triton-X-100 in PBS for 24 h at 37° C. Cell lysate was then collected, vortexed for 15 seconds, and centrifuged at 7000 rpm for 5 minutes. Cytotoxicity detection kit (Roche Applied Science, Indianapolis, Ind.) was used to measure the LDH release. LDH released was normalized to the total LDH (released+lyzed).

The subject of data set [1] is stearoyl-CoA desaturase (SCD). Kind of data set: SCD protein expression by western blot in HepG2 cells. On the procedure: The protein expression level of SCD in HepG2 cells cultured in control (HepG2 medium), palmitate, oleate, palmitate+oleate, mediums were measured as a function of TNF-α with western blots.
In another data set the test system is Bcl-2. As to the kind of experiment: Bcl-2 protein expression by western blot in HepG2 cells.
A further data set deals with PKC-δ. As to the kind of experiment: PKC-δ expression by western blot in HepG2 cells. Conditions: TNF-α 20 and 100 ng/mL; control, palmitate and oleate cultures. On the procedure: PKC-δ Inhibiting Analysis. The levels of PKC-δ in HepG2, palmitate (700 μM), oleate (700 μM) and palmitate (400 μM)+oleate medium (300 μM) with TNF-α supplementation of 0, 20, 100 ng/mL were detected with western blotting using anti-PKC-δ antibody (Santa Cruz Biotechnology, Inc., Santa Cruz, Calif., US) at 1:2000 dilution.

The next data set has as its system SCD gene expression. As to the kind of experiment: SCD gene expression by cDNA microarray in HepG2 cells. Conditions: TNF-α in HepG2 cells; log 2(treatment/control). On the procedure:
Gene expression profiling. Cells were cultured in 10 cm tissue culture plates until confluence and then exposed to different treatments. RNA was isolated with Trizol reagent. The gene expression profiling was obtained with cDNA microarray. Analyses were done at the Van Andel Institute, Grand Rapids, Mich. The protocols are available online at (http://microarray.vai.org/protocols/). There were two biological replicates for each condition and each replicate was measured with the Cy3 and Cy5 dyes.

Read-outs that look alike come from different tables or passages of the source.

Experimental for Bcl-2: Cells cultured in mediums of HepG2, Palmitate, Oleate, Palmitate (400 μM)+Oleate medium (300 μM) were lysated as described before. The protein samples were run on 10-20% gradient SDS-PAGE. Bcl-2 was probed with Bcl-2 antibody (1:1000) (Cell Signaling Technology, Inc., Danvers, Mass., US) as the primary antibody and goat anti-rabbit IgG as the second antibody at 1:1000 dilution.

`CCOC(=O)C1=C(N)Oc2ccc(Br)cc2C1C(C#N)C(=O)OCC` (stereo not shown) [HA14-1]: the “activation of phospho-P65 NF-κB” value in the data set on phospho-P65 NF-κB (10 μM, control, palmitate, oleate and palmitate+oleate co-supplementation cultures) is on record as “attenuated the activation of phospho-P65 NF-κB”.

For `CC(=O)N[C@@H](CS)C(=O)O` [N-acetyl cysteine], the “LDH release in palmitate culture” value in the data set with Hep G2/C3A cells (co-supplementation of 10 mM) is “reduced LDH release”. Moreover, in data set [1] (co-supplementation of 10 mM), the “SCD protein expression in palmitate culture” value was “prevented the SCD down-regulation”.

In the data set on Hep G2/C3A cells (PKR inhibitor 6 μM in control culture medium, 3% without inhibitor), `O=C1Nc2ccc3ncsc3c2/C1=C/c1cnc[nH]1` [PKR inhibitor] yielded an LDH release of 25%. Also, in the data set with Bcl-2 (6 μM in culture medium of control), the Bcl-2 expression entry was “decreased the Bcl-2 expression”.

As for `CC(C)(Oc1ccc(C2CC2(Cl)Cl)cc1)C(=O)O` (stereo not shown) [ciprofibrate], the “LDH release in palmitate culture” value in the data set with Hep G2/C3A cells (6 hours pretreatment followed by 48 hours co-supplementation of 50 μM, palmitate culture) was “significantly decrease LDH release”.

With `CC(=O)c1c(O)c(C)c(O)c(Cc2c(O)c3c(c(C(=O)/C=C/c4ccccc4)c2O)OC(C)(C)C=C3)c1O` [rottlerin], in the data set with Hep G2/C3A cells (rottlerin added to palmitate cultures), the “increase of LDH release in the palmitate cultures” value is “up to 25%”. The “TNF-α-induced activation of phospho-P65 NF-κB” value in the data set with phospho-P65 NF-κB (rottlerin 5 μM, 0, 20 or 100 ng/mL TNF-α) is “this activation was attenuated”.

With TNF-α, the cytotoxicity entry in the data set with Hep G2/C3A cells is reported as “cytotoxic”; in the data set with Hep G2/C3A cells (record 2), “cytoprotective”. Further, the “LDH release in control culture” value with Hep G2/C3A cells (TNF-α in control culture) is listed as “did not affect LDH release”. Moreover, the SCD protein expression entry in data set [1] (TNF-α, control, oleate and co-supplementation cultures) was “decreased the expression of SCD”. Besides, in the data set with phospho-P65 NF-κB (TNF-α 0, 20 or 100 ng/mL), the “phospho-P65 NF-κB” value is listed as “activated phospho-P65 NF-κB”. In addition, the Bcl-2 expression result with Bcl-2 (TNF-α 20-100 ng/mL, control, palmitate and oleate cultures) is “down-regulated”. The “expression of PKC-δ 41 kDa catalytically active fragment” value in the data set on PKC-δ is “increased”. Further, in the data set on SCD gene expression, the “gene expression of SCD” value is “upregulated”.
